Test results as given in patent US20240294881A1, “CELL CULTURE SUPPLEMENT FOR PRODUCING STEM CELLS, AND METHOD FOR PRODUCING STEM CELLS” (OPTICELL, INC, priority 2021, published 2024).

Columns and labels:
[1] = test system: HOS-143B (human osteosarcoma); assay: Study of concentration of cell culture supplement: spheroid formation; format: cell-based; conditions: 96-well flat-bottom plate, 3 days of culture
Protocol: An aqueous solution of the polypeptide represented by formula (1) (0.5%) was diluted 4-fold to 1024-fold to prepare different diluted solutions (cell culture supplement), and 100 μl of the solution was added to each well of a commercial 96-well flat-bottom plate (CellBIND, Corning) and allowed to stand at 4° C. for 16 hours.
Thereafter, the excess cell culture supplement was removed, and the remaining solution was dried under reduced pressure at room temperature for 24 hours. HOS-143B (human osteosarcoma) was seeded at 3,000 cells/well in a culture plate coated with the cell culture supplement and cultured at 37° C. under 5% CO2 conditions. The medium used was DMEM+10% FBS.

[2] = test system: HOS-143B (human osteosarcoma); assay: Study on plate shape: spheroid formation; format: cell-based; conditions: 96-well plate coated with 0.125% solution, 2 days of culture
Protocol: (§1) 200 μl of an aqueous solution of the polypeptide represented by formula (1) (0.125%) (cell culture supplement) was added to each well of a commercial 96-well flat-bottom plate (Thermo Fisher Scientific), a V-bottom plate (Thermo Fisher Scientific), and a U-bottom plate (Thermo Fisher Scientific) and allowed to stand at 4° C. for 16 hours.
(§2) Thereafter, the excess cell culture supplement was removed, and the remaining solution was dried under reduced pressure at room temperature for 24 hours.
(§3) Hela cells (human cervical epithelial cancer, JCRB9004, National Institutes of Biomedical Innovation, Health and Nutrition) and HOS-143B (human osteosarcoma) were seeded at 2,000 cells/well in a culture plate coated with the cell culture supplement and cultured at 37° C. under 5% CO2 conditions. The medium used was DMEM+10% FBS.

[3] = test system: Hela cells (human cervical epithelial cancer); assay: Study on plate shape: spheroid formation; format: cell-based; conditions: 96-well plate coated with 0.125% solution, 2 days of culture
Protocol: as §1, §2, §3

[4] = test system: healthy human neonatal fibroblasts; assay: Spheroid culture of healthy human neonatal fibroblasts in coated 6-well flat-bottom vessel, microscope observation; format: cell-based; conditions: PS 6-well flat-bottom vessel coated with 0.125% solution; day 2 to day 20; uncoated control adhered and grew 2D
Protocol: 2 mL of an aqueous solution of the polypeptide represented by formula (1) (0.125%) (cell culture supplement) was added to a commercial polystyrene-made 6-well flat-bottom culture vessel (CellBIND, Corning) and allowed to stand at 4° C. for 24 hours.
Thereafter, the excess cell culture supplement was removed, and the remaining solution was dried in a dryer at 37° C. for 96 hours to complete coating treatment with the cell culture supplement. Healthy human neonatal fibroblasts (ATCC PCS-201-010, primary dermal fibroblasts, neonatal, referred to as “fibroblasts” below) were maintained and cultured in a serum-free medium (Promo Cell; fibroblast basal medium, basic-FGF 5 ng/mb and insulin 2.5 μg/mL). The fibroblasts floating in 2 mL of the medium were seeded in the culture vessel coated with the cell culture supplement at 2×10^6 cells/well and cultured at 37° C. under 5% CO2 conditions. For a control, fibroblasts were seeded in a culture vessel of the same type with no coating applied with the cell culture supplement (2×10^6 cells/well). Observation was performed with a microscope on day 2 and day 20 after the start of culture to capture images of spheroid formation (FIG. 5).

ES2 ovarian cancer cells = assay: Real-time PCR of cancer stem cell and undifferentiated stem cell marker genes in cancer cell spheroids; format: cell-based, human; conditions: for CD24 gene expression level (increase vs control) / CD44 gene expression level (increase vs control) / NANOG gene expression level (increase vs control) / OCT4 gene expression level (increase vs control) / SOX2 gene expression level (increase vs control): control no supplement, 2D adhesion proliferation, day 4 = 1.0
Protocol: A culture vessel treated with the cell culture supplement was prepared in the same manner as in Example 7, and the same three types of cancer cells as those in Example 7 were cultured. On day 4 and day 15 after the start of culture, spheroids of each of the three types of cancer cells were taken from the culture vessel and collected in an individual 15-mb centrifuge tube, followed by washing with phosphate buffered saline (−). After removal of the medium, cancer cells cultured in the plate free of the cell culture supplement (control) were washed with PBS (−), detached from the plate with 0.05% trypsin-EGTA and dissociated. The cancer cells were then collected in a 15-mL centrifuge tube and washed again with PBS (−). mRNA was extracted from the collected spheroids and control cells, and the expression of cancer stem cell marker genes was analyzed by real-time PCR.
Specifically, a NucleoZOL reagent (Macherey-Nagel) reagent was added to each type of cells, and RNA was extracted according to the protocol recommended by the reagent manufacturer and used as template RNA for detecting stem cell markers. For real-time PCR analysis, PCR probes from QuantiFast Probe RT-PCR Kits (QIAGEN; No. 204454) and TaqMan Gene Expression Assay Probe (Thermo Fisher Scientific) were used. PCR analysis was performed with a Rotor-Gene Q (QIAGEN) apparatus. For probes for detecting the expression of cancer stem cell marker genes, the following three PCR probes were used: CD24 (mucin-type glycoprotein, ligand for P-selectin, Oncogene), CD44 (cell surface glycoprotein involved cell-cell interaction, adhesion and migration, cancer stem cell marker), CD133 (five transmembrane glycoprotein, stem cell marker and cancer stem cell marker protein). B-actin was used as an endogenous control gene. For probes for detecting the expression of undifferentiated stem cell marker genes, three transcription factors, SOX2 (sex-determining region Y-box 2), OCT4 (octamer binding transcription factor 4), and NANOG (homeodomain transcription factor), which are used in the production of iPS cells, were used; and β-actin was used as the endogenous control gene. In the gene expression analysis, relative quantification was performed according to the ΔΔCt method (Delta Delta Ct method). The results of analysis according to the ΔΔCt method show the amount of a gene expressed by control cells under the conditions of “no cell culture supplement, 2D adhesion proliferation, day 4” as “1.0” in relative terms, and the increase rate in “the expression level in spheroid proliferation on day 15” was determined by comparison (FIGS. 23 to 25).
Coating of a culture vessel was completed in the same manner as in Examples 7 and 11, and three types of cancer cells, A549 cells, ES2 cells, and 143B cells, were cultured. For probes for detecting the expression of undifferentiated stem cell marker genes, the following three transcription factors were used: SOX2 (sex-determining region Y-box 2), OCT4 (octamer binding transcription factor 4), and NANOG (homeodomain transcription factor); and β-actin was used as an endogenous control gene. In the gene expression analysis, relative quantification was performed according to the ΔΔCt method (Delta Delta Ct method). The results of analysis according to the ΔΔCt method show the amount of a gene expressed by control cells under the conditions of “no cell culture supplement, 2D adhesion proliferation, day 4” as “1.0” in relative terms, and the increase rate in “the expression level in spheroid proliferation on day 15” was determined by comparison (FIGS. 26 to 28).

(Pro-Hyp-Gly)n [cell culture supplement]
spheroid formation in plates coated with solutions diluted further than 256-fold [1]: No formation of spheroids was observed
dilution of the 0.5% aqueous solution used for coating at which formation of spheroids was observed ([1]; dilutions 4-fold to 1024-fold): ≤ 256 -fold diluted
spheroid formation, U-bottom plate [2]: several spheroids
spheroid formation, V-bottom plate [2]: a single spheroid
spheroid formation, flat-bottom plate [2]: Numerous small spheroids
spheroid formation, U-bottom plate [3]: several spheroids
spheroid formation, V-bottom plate [3]: a single spheroid
spheroid formation, flat-bottom plate [3]: Numerous small spheroids
spheroid formation [4]: formed spheroids
CD24 gene expression level (increase vs control) (ES2 ovarian cancer cells; day 4 of spheroid culture): 11.6 fold
CD44 gene expression level (increase vs control) (ES2 ovarian cancer cells; day 4 of spheroid culture): 1.3 fold
NANOG gene expression level (increase vs control) (ES2 ovarian cancer cells; day 4 of spheroid culture): 3.9 fold
OCT4 gene expression level (increase vs control) (ES2 ovarian cancer cells; day 4 of spheroid culture): 2.6 fold
SOX2 gene expression level (increase vs control) (ES2 ovarian cancer cells; day 4 of spheroid culture): 1.1 fold
CD133 gene expression level (increase vs day 4 spheroid culture) (ES2 ovarian cancer cells; day 15 of spheroid culture, CD133 on day 4 in spheroid culture taken as control value (1.0), not detected in adhesion proliferation cells): 8.5 fold
CD24 gene expression level (increase vs control) (ES2 ovarian cancer cells; day 15 of spheroid culture): 63.2 fold
CD44 gene expression level (increase vs control) (ES2 ovarian cancer cells; day 15 of spheroid culture): 2.9 fold
NANOG gene expression level (increase vs control) (ES2 ovarian cancer cells; day 15 of spheroid culture): 10.9 fold
OCT4 gene expression level (increase vs control) (ES2 ovarian cancer cells; day 15 of spheroid culture): 4.6 fold
SOX2 gene expression level (increase vs control) (ES2 ovarian cancer cells; day 15 of spheroid culture): 3.4 fold
